According to ChEMBL document CHEMBL1148067, “Khusimol, a non-peptide ligand for vasopressin V1a receptors” (J Nat Prod, 1994):
The source made the active and inactive calls. The rule behind the calls is not given here.

Key:
[1] = target: Vasopressin V1a receptor (Rattus norvegicus) (UniProt P30560); experiment: Displacement of [3H]AVP from vasopressin V1a receptor in rat liver membrane at 25 uM by competitive displacement assay; assay type: cell membranes
[2] = target: Vasopressin V1a receptor (Rattus norvegicus) (UniProt P30560); experiment: Displacement of [3H]AVP from vasopressin V1a receptor in rat liver membrane at 50 uM by competitive displacement assay; assay type: cell membranes
Vasopressin V1a receptor [3] = target: T1, Vasopressin V1a receptor (Rattus norvegicus, UniProt P30560); experiment: Displacement of [3H]AVP from vasopressin V1a receptor in rat liver membrane; assay type: cell membranes
T1 sequence (P30560 whole entry): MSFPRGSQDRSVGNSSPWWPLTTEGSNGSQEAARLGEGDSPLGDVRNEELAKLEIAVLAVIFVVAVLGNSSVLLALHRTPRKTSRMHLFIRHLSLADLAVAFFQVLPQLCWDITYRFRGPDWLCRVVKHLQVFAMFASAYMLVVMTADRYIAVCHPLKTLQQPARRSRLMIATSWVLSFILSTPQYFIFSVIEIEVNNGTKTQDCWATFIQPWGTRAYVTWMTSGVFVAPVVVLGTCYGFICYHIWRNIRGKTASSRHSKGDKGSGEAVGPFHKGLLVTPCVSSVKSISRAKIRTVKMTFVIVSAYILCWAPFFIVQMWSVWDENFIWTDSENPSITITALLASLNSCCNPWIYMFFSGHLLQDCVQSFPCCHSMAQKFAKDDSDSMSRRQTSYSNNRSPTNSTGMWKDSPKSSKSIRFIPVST

Vasopressin V1a receptor [4] = target: T1, Vasopressin V1a receptor; experiment: Displacement of [3H]AVP from vasopressin V1a receptor in rat liver membrane by competitive displacement assay; assay type: cell membranes
Vasopressin V1a receptor [5] = target: Vasopressin V1a receptor (Homo sapiens, UniProt P37288); experiment: Binding affinity to vasopressin V1a receptor
Chain of Vasopressin V1a receptor (Homo sapiens, UniProt P37288) (P37288 whole entry): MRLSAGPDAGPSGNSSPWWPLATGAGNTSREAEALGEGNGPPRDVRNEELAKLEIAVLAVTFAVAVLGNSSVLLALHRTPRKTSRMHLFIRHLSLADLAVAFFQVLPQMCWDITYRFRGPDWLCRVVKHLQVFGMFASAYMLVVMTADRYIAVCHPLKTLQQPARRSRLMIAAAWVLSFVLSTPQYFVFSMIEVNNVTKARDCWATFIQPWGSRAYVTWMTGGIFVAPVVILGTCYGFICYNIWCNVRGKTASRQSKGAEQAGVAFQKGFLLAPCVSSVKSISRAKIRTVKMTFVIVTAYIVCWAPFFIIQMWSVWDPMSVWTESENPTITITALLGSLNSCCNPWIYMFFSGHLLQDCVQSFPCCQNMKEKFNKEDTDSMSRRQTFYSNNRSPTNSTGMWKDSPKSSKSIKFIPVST

Chain of Vasopressin V1a receptor (Rattus norvegicus) (P30560 whole entry, looked up): as the sequence (P30560 whole entry) above

C=C1[C@H]2CC[C@H](CO)[C@@]23CC[C@H](C3)C1(C)C [KHUSIMOL]
inhibition [1]: Active
inhibition [2]: Active
IC50 (Vasopressin V1a receptor [3]): 125 µM
Ki (Vasopressin V1a receptor [3]): 41 µM
Ki (Vasopressin V1a receptor [4]): 53 µM

CC(=O)NCCCOc1ccc(C(=O)N2CCC(N3C(=O)CCc4ccccc43)CC2)cc1
Ki (Vasopressin V1a receptor [5]): 350 nM
